In patent publication US10500164B2, “Nanoparticle-based combinatorial therapy” (The American University in Cairo, priority 2014, dated 2019):

Assay: In-vitro drug release of DOX in Tris-HCl buffer pH 5 and PBS pH 7.4
Format: physicochemical
Conditions: free DOX solution control, over 4 hrs
Protocol: FIGS. 7A-B show according to an exemplary embodiment of the invention in-vitro release of free DOX, and DOX-NCs in Tris-HCl buffer pH 5 (FIG. 7A) and PBS pH 7.4 (FIG. 7B).
Since the release behavior of DOX-NCs at the desired site is of a great importance for formulating an ideal cancer-targeted drug delivery system, in-vitro release studies were performed at two different pH values were tested: pH 7.4, which mimics the pH of the blood stream and pH 5, which mimics the pH of the endosomes within cancer cells. In-vitro results […] that DOX-AgNCs, DOX-Ag/PVA NCs, DOX-Ag/PEG NCs and DOX-Ag/PVP NCs released 96.6%, 97.4%, 98% and 96.4% of DOX at pH 5. While at pH 7.4, the release percentages of DOX were 73.4%, 54.3%, 59.8% and 68.5% over the course of 6 hrs. […] In-vitro release is shown of free DOX, and DOX-NCs in Tris-HCl buffer pH 5 (FIG. 7A) and PBS pH 7.4 (FIG. 7B).

release percentage of DOX (pH 5): 97.4%
release percentage of DOX (pH 7.4): 67.7%
Structure (SMILES): COc1cccc2c1C(=O)c1c(O)c3c(c(O)c1C2=O)C[C@@](O)(C(=O)CO)C[C@@H]3O[C@H]1C[C@H](N)[C@H](O)[C@H](C)O1 [free DOX, Doxorubicin]
